{"source": "patent US10172816B2", "about": "“Method of treating chronic obstructive pulmonary disease (CPD) with verproside” (YUNGJIN PHARMACEUTICAL CO., LTD, priority 2013, dated 2019)", "key": {"[1]": {"target": "ADBR2 (beta-2 adrenergic receptor) GPCR (Homo sapiens, UniProt P07550)", "sequence (P07550 whole entry)": "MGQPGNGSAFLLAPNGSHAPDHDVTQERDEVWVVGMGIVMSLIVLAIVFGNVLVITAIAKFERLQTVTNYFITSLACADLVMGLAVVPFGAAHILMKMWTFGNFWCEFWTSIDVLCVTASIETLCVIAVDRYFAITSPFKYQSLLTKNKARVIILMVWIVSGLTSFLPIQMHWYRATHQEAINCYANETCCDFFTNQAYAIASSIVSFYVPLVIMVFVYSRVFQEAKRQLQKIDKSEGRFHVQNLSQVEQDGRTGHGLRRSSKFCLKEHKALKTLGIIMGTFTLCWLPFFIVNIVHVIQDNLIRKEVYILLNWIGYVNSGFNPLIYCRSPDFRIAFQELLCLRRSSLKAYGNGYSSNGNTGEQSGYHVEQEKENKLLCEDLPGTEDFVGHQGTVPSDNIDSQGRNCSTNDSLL", "assay": "ADBR2 GPCR-targeting cell-based assay (spot formation)", "details": "20 micromole; U2OS cells stably expressing ADBR2 GPCR"}, "Mucin 5A/C [2]": {"test_system": "Mucin 5A/C", "assay": "Acrolein-induced Mucin 5A/C expression in A549 cells (RT-PCR)", "assay_type": "cell-based, human", "details": "pre-treated 1 hour, then 30 nM acrolein, dose dependent", "protocol": "The diluted A549 cell line (ATCC, CCL-185) with DMEM medium supplemented with 5% phenol red and FBS (Fetal Bovine Serum) was seeded in 6 well plates (4×10^5 cells/well) to adhere thereto for a night, and 20 and 40 microgram/ml of ATC2 extract were treated with A549 cell line for 1 hours. 30 nM acrolein was treated therewith to induce Mucin 5A/C expression. The medium was removed the cell, washed with PBS solution and homogenized with Trizol (Invitrogen, CA, USA) for the isolation of ribonucleic acids from the cells for 5 mins. the cells were collected, transferred to centrifugal separator, completely mixed with chloroform for 15 seconds, left alone for 3 mins and centrifuged for 15 mins at the speed of 14,000 rpm. The supernatant containing ribonucleic acid was transferred to new tube and mixed with isopropylalcohol for 10 mins. The solution was centrifuged to discard the supernatant and 75% ethanol was added to the precipitate. The precipitate was centrifuged for 5 mins at the speed of 10,000 rpm and the supernatant was discarded. The precipitated ribonucleic acid was dried at room temperature for 20 mins. […] After the quantification of ribonucleic acid, the complementary DNA was synthesized using by 1 microgram of RNA and RT-kit (Omniscript RT kit, Qiagen, USA) and the synthetic cDNA was used as a template. […]"}, "TNF-α": {"test_system": "TNF-α", "assay": "COPD mouse model (LPS+CS): TNF-α in BALF by ELISA", "assay_type": "in vivo, BALB/c mice", "details": "15 mg/kg, p.o.", "protocol": "(§1) 8 weeks aged BALB/c male mice was anaesthetized with 7% chloral hydrate and 100 μl of LPS+CS mixture {LPS (100 μg/ml)+standard cigarette extract (Cigarette smoking (CS), 4 mg/ml)=1:1} was inhaled to mice (i.t.) for three weeks once a week to prepare COPD animal model. Briefly, 100 μl of LPS+CS mixture was evenly inhaled to nose and mouth of fastened mice (i.t). […] After the end of experiment, the blood, BALF, and pneumonocyte of each mice were isolated and collected to test. The level of IL-1β, IL-6, TNF-a, IL-17, MCP-1, and GRO-a (BioSource, USA) in BALF isolated from mice was determined by enzyme-linked immuno-sorbent assay. Respective antibodies against L-1β, IL-6, TNF-a, IL-17, MCP-1, and GRO-a were diluted with a coating buffer solution (291195, R&D System, USA), coated on a microwell and left alone for overnight at 4° C. Each well was washed three times with washing buffer solution and 100 μl of 10-fold diluted serum was added thereto. […] The solution was left alone for 30 mins in shadow and added with 50 μl of stop solution (DY994, R&D system, USA) to determine the absorbance using by ELISA leader at 450 nm (340PC384, Molecular Devices, USA)."}, "[3]": {"test_system": "inflammatory immunocytes and neutrophils in BALF", "assay": "COPD mouse model (LPS+CS, i.t.): immunocytes, neutrophils and T lymphocytes in BALF", "assay_type": "in vivo, BALB/c mice", "details": "15 mg/kg, p.o.", "protocol": "Specific pathogen-free male BALB/c mice (about 18-20 g), aged 8 weeks, which were routinely screened serologically for relevant respiratory pathogens, were purchased from ORIENT Co. (www.orient.co.kr, Seoul, Korea) and bred allowing to access freely to feed and water in breeding room controlling the temperature of 22±2° C., and humidity of 55±15% at the light-dark cycle for 12 hours and acclimated with the experimental environment for 1 week. […] 8 weeks aged BALB/c male mice was anaesthetized with 7% chloral hydrate and 100 μl of LPS+CS mixture {LPS (100 μg/ml)+standard cigarette extract (Cigarette smoking (CS), 4 mg/ml)=1:1} was inhaled to mice (i.t.) for three weeks once a week to prepare COPD animal model. Briefly, 100 μl of LPS+CS mixture was evenly inhaled to nose and mouth of fastened mice (i.t). […] After the end of experiment, the blood, BALF, and pneumonocyte of each mice were isolated and collected to test. After blood collection, 1 ml of FBS-free/DMEM medium contained in injector was injected to the trachea of autopsied mice, and the mice was fixed with string to circulate the blood three times and isolate the cell from BALF. […] The isolated PBMCs, BAL (Bronchoalveolar lavage), and pneumocyte were adjusted to 5×10^5 cells and performed to immunofluorescence staining at 4° C. PE-anti-CD3e (553064, BD Pharmingen, USA), FITC-anti-CD8 (553031, BD Pharmingen, USA), PE-anti-CD4 (553047, BD Pharmingen, USA), PE-anti-Gr-1 (553128, BD Pharmingen, USA), and FITC-anti-neutrophil (ab55453, Abcam, UK) were added thereto, respectively, and reacted for 30 mins in ice. After the reaction, the cells were washed with phosphate buffered physiological saline solution more than three times and the cell frequency (%) of CD3^+CD4^+& CD3^+CD8^+, and Gr-1^+Neutrophil^+ was determined using by Cell Quest program (643274, BD Biosciences, USA) of the flow cytometer (FACSCalibur, Becton, Dickinson, USA) and the absolute total number in each tissue was calculated by applying total cells."}, "MIP-2/CXCL-2": {"test_system": "MIP-2/CXCL-2", "assay": "COPD mouse model (LPS+CS): MIP-2/CXCL-2 in BALF by ELISA", "assay_type": "in vivo, BALB/c mice", "details": "15 mg/kg, p.o."}, "[4]": {"test_system": "KC/CXCL-1 (Chemokines Gro-α)", "assay": "COPD mouse model (LPS+CS): KC/CXCL-1 in BALF by ELISA", "assay_type": "in vivo, BALB/c mice", "details": "15 mg/kg, p.o.", "protocol": "as §1"}, "Mucin 5A/C [5]": {"test_system": "Mucin 5A/C", "assay": "Digitization of Mucin 5A/C expression in A549 cells by high content screening", "assay_type": "cell-based, human", "details": "1, 5 and 10 ng/ml, versus control medium (GM)", "protocol": "Accordingly, the present inventors developed novel high throughput screening test by introducing high content screening system which can quantitatively determine the expression of target protein in animal cell level and in order to screening the inhibiting agent of Mucin 5AC expression, following test was performed by modifying the target activator method published on Cellomics BioApplication.\nA549 cell line (ATCC, CCL-185), a epithelial cell line isolated from human lung cancer tissue was seeded on 96 well plates (5,000 cells/well) and 24 hrs after the seeding, 20 ng/ml of bFGF, 100 ng/ml of EGF, 20 micromole IGF, 5 ng/ml of TGF-beta1, 30 nanomole acrolein, 5 nanomole PMA, 1 microgram/ml, LPS and 20 ng/ml of IL-1 beta were treated therewith. The expression of Mucin 5A/C was digitized by target activator program in Cellomics apparatus.\nVarious concentrations of TGF-beta 1 (PeproTech, #100-21), i.e., 1, 5 and 10 ng/ml TGF-beta 1 were treated with A549 cell line (ATCC, CCL-185), and the expression of Mucin 5A/C was digitized by target activator program in Cellomics apparatus.\nVarious concentrations of ATC2 extract were treated with A549 cell line for 2 hours and then […] TNF-alpha (Sigma, H8916) was treated therewith for 24 hours. The expression of Mucin 5A/C was digitized by target activator program in Cellomics apparatus."}}, "data": [{"molecule": "COc1cc(C(=O)O[C@H]2[C@@H]3C=CO[C@@H](O[C@@H]4O[C@H](CO)[C@@H](O)[C@H](O)[C@H]4O)[C@@H]3[C@@]3(CO)O[C@@H]23)ccc1O", "note": "[picroside II, 6-O-(4-hydroxy-3-methoxybenzoly) catalpol]", "values": [{"measurement": "spot formation", "setting": "[1]", "value": "did not show spot formation"}]}, {"molecule": "COc1ccc(C(=O)O[C@H]2[C@@H]3C=CO[C@@H](O[C@@H]4O[C@H](CO)[C@@H](O)[C@H](O)[C@H]4O)[C@@H]3[C@@]3(CO)O[C@@H]23)cc1OC", "note": "[6-O-veratroyl catalpol, 6-O-(3,4-dimethoxybenzoly) catalpol]", "values": [{"measurement": "spot formation", "setting": "[1]", "value": "did not show spot formation"}, {"measurement": "expression of Mucin 5A/C (mRNA, RT-PCR)", "setting": "Mucin 5A/C [2]", "value": "inhibited"}]}, {"molecule": "O=C(O[C@H]1[C@@H]2C=CO[C@@H](O[C@@H]3O[C@H](CO)[C@@H](O)[C@H](O)[C@H]3O)[C@@H]2[C@@]2(CO)O[C@@H]12)c1ccc(O)cc1", "note": "[catalposide, 6-O-(4-hydroxybenzolyl) catalpol]", "values": [{"measurement": "spot formation", "setting": "[1]", "value": "did not show spot formation"}]}, {"molecule": "COc1ccc(C(=O)OC2C3C=COC(OC4OC(CO)C(O)C(O)C4O)C3C3(CO)OC23)cc1O", "note": "(centres unmarked) [isovanilloyl catalpol, 6-O-(3-hydroxy-4-methoxybenzoyl)catalpol]", "values": [{"measurement": "spot formation", "setting": "[1]", "value": "did not show spot formation"}]}, {"molecule": "O=C(Nc1c(Cl)cncc1Cl)c1ccc(OC(F)F)c(OCC2CC2)c1", "note": "[Roflumilast, reference compound]", "values": [{"measurement": "reduction of TNF-α in BALF compared with control group", "setting": "TNF-α", "value": "> 65.0", "unit": "%"}, {"measurement": "number of total immunocyte in BALF compared with control group", "setting": "[3]", "value": "sharply reduced"}, {"measurement": "reduction of number of neutrophils (Diff-Quik stained, cytospin) in BALF compared with control group", "setting": "[3]", "value": "> 99.0", "unit": "%"}, {"measurement": "reduction of total absolute cell number of CD8+ T cell in BALF compared with control group", "setting": "[3]", "value": "more than 67.2%"}, {"measurement": "reduction of total absolute cell number of Neutrophils+Gr-1+ cell in BALF compared with control group", "setting": "[3]", "value": "> 97.5", "unit": "%"}, {"measurement": "reduction of chemokines MIP-2/CXCL-2 in BALF compared with control group", "setting": "MIP-2/CXCL-2", "value": "> 81.9", "unit": "%"}, {"measurement": "reduction of chemokine KC/CXCL-1 in BALF compared with control group", "setting": "[4]", "value": "> 82.7", "unit": "%"}]}, {"molecule": "COc1ccc(C(=O)O)cc1OC", "note": "[veratric acid]", "values": [{"measurement": "spot formation", "setting": "[1]", "value": "did not show spot formation"}]}, {"molecule": "TGF-beta1: TGF-beta 1 (PeproTech, #100-21)", "values": [{"measurement": "expression of Mucin 5A/C", "setting": "Mucin 5A/C [5]", "value": "more inhibited the expression of MUCSA/C than control medium"}]}]}
